Assay results reported in US20110224226A1, “COMPOSITIONS AND METHODS FOR INCREASING BLOOD PLATELET LEVELS IN HUMANS” (AKARX, Inc., priority 2006, published 2011).

What was measured:
[1] = system: liver microsomal enzymes; assay: metabolism by dog liver microsomal enzymes; type: in vitro ADME
[2] = pharmacokinetics after intravenous and oral administration in dogs; type: in vivo; settings: dog, plasma
Text: After a single intravenous administration of the drug of Formula I as the monomaleate salt to mice and dogs, plasma concentrations of Formula I decreased in a biphasic manner.

[3] = cardiovascular and respiratory system effects in the conscious dog; type: in vivo; settings: up to a dose of 300 mg/kg
[4] = species specificity of activity; design: species or system chimpanzee and man
[5] = molecular target: T1, human c-Mpl (Homo sapiens, UniProt P40238); assay: interference with rhTPO binding to human platelets; settings: concentrations up to 100 μM
T1 construct: endogenous in cells; host or cells: human platelets
T1 sequence (P40238 26-635): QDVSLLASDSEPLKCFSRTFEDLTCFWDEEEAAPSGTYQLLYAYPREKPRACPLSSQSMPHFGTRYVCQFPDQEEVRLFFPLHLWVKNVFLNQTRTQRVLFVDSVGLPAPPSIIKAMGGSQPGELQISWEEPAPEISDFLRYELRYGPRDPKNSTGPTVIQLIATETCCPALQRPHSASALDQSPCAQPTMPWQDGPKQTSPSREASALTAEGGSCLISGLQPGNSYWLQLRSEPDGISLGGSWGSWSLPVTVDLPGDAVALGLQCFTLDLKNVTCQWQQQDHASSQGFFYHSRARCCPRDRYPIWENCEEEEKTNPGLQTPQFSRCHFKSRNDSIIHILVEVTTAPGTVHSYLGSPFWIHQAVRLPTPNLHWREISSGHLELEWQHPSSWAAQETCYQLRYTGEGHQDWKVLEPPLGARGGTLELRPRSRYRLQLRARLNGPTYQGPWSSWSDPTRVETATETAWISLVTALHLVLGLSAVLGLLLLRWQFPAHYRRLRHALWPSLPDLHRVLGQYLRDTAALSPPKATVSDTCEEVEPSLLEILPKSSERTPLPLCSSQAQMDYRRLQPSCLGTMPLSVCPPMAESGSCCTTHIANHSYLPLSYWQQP

[6] = system: platelet function; assay: platelet function (platelet aggregation and activation); type: cell-based, human
[7] = system: human hematopoietic progenitor cells; assay: differentiation of hematopoietic progenitor cells other than megakaryocytic lineage; type: cell-based
[8] = molecular target: 2C9 (Homo sapiens, UniProt P11712); assay: inhibition of human liver cytochrome P450 2C9; type: in vitro ADME; settings: human liver cytochrome P450 isoenzyme
[9] = molecular target: 2D6 (Homo sapiens, UniProt P10635); assay: inhibition of human liver cytochrome P450 2D6; type: in vitro ADME; settings: human liver cytochrome P450 isoenzyme
[10] = QT interval in cynomolgus monkeys; type: in vivo; settings: 100 and 1000 mg/kg, appears related to decreased heart rate from acclimation, not drug related

Sequence of 2D6 (P10635 whole entry): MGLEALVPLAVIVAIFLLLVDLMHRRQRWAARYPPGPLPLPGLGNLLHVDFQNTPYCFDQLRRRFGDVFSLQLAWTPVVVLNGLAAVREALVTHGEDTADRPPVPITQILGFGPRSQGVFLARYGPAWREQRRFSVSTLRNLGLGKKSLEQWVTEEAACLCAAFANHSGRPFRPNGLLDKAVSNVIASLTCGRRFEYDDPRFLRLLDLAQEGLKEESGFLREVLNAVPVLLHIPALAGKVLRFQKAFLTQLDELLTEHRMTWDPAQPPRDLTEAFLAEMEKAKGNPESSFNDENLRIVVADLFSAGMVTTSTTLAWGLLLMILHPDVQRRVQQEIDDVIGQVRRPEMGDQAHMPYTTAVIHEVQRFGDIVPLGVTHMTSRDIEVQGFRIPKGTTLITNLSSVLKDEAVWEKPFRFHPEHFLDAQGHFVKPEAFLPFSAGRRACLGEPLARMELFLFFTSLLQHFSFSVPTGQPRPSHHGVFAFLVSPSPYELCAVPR
Sequence of 2C9 (P11712 whole entry): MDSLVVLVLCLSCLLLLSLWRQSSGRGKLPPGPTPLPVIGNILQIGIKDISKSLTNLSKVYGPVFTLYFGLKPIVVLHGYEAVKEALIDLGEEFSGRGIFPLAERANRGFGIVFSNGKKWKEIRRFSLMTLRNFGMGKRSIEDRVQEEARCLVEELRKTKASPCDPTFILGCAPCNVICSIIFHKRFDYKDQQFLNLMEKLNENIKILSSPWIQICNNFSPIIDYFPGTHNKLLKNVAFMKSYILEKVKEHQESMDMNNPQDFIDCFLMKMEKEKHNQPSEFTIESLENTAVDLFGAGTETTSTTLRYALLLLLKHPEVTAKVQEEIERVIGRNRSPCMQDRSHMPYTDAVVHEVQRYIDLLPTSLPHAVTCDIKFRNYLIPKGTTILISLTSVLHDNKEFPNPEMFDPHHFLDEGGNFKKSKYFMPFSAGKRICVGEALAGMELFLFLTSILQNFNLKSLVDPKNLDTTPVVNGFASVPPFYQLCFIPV

metabolism by liver microsomal enzymes [1]: does not appear to be metabolized
half-life ([2]; dogs, single intravenous administration as the monomaleate salt, read-out: terminal elimination half-life (t1/2) (converted)): 2.7 h
bioavailability ([2]; oral administration, read-out: absolute bioavailability): 52%
interference with rhTPO binding to human platelets [5]: does not interfere
inhibition of CYP2C9 [8]: did not inhibit
inhibition of CYP2D6 [9]: did not inhibit
Compound: O=C(Nc1nc(-c2cc(Cl)cs2)c(N2CCN(C3CCCCC3)CC2)s1)c1cnc(N2CCC(C(=O)O)CC2)c(Cl)c1 [Formula I, 1-(3-chloro-5-{[4-(4-chlorothiophen-2-yl)-5-(4-cyclohexylpiperazin-1-yl)thiazol-2-yl]carbamoyl}pyridin-2-yl)piperadine-4-carboxylic acid]
cardiovascular or respiratory system effects [3]: No cardiovascular or respiratory system effects were observed
species specificity [4]: activity only in the chimpanzee and man
platelet function as measured by platelet aggregation and activation [6]: does not appear to effect platelet function
differentiation of human hematopoietic progenitor cells other than those of megakaryocytic lineage [7]: did not promote the differentiation
QT interval [10]: prolongation of QT interval was reported
